Results on 64 molecules are retold here after patent US8580799B2 (priority 2008, dated 2013).

The nature of the first series: Measurement of logP values by HPLC on reversed phase columns (EEC directive 79/831 Annex V.A8). It is filed as physicochemical. Conditions: method [a]: pH 2.3 with 0.1% phosphoric acid and acetonitrile as eluent.
For `CCCCCOC(=O)Nc1ccnc(CON=C(c2ccccc2)c2nsnc2C(F)(F)F)n1` [Example 9], the logp is 4.92^[a].

Consider `COCCOCC(=O)Nc1ccnc(CON=C(c2ccccc2)c2nsnc2C(F)(F)F)n1` [Example 13], for which the logp was 3.46^[a].

Consider `CC(C)(C)C(=O)Nc1ccnc(CON=C(c2ccccc2)c2nsnc2C(F)(F)F)n1` [Example 16], for which the logp is 4.24^[a].

For `CCCCCOC(=O)Nc1cccc(CON=C(c2ccccc2)c2nsnc2C(F)(F)F)n1` [Example 19], the logp was 5.68^[a].

As for `CC(C)CC(=O)Nc1ccnc(CON=C(c2ccccc2)c2nsnc2C(F)(F)F)n1` [Example 14], the logp is 4.09^[a].

For the molecule `Nc1ccnc(CON=C(c2ccccc2)c2nsnc2C(F)(F)F)n1` [Example 8], the logp is 1.75^[a].

As for `Nc1nc(CON=C(c2ccccc2)c2nsnc2C(F)(F)F)cs1` [Example 10], the logp was 2.26^[a].

For `O=C(CCCc1ccccc1)Nc1ccnc(CON=C(c2ccccc2)c2nsnc2C(F)(F)F)n1` [Example 12], the logp is 4.65^[a].

For `CCCCCC(=O)Nc1ccnc(CON=C(c2ccccc2)c2nsnc2C(F)(F)F)n1` [Example 17], the logp is 4.54^[a].

With `O=C1c2ccccc2C(=O)N1c1cccc(CON=C(c2ccccc2)c2nsnc2C(F)(F)F)n1` [Example 18], the logp was 4.31^[a].

Staying with this series, now noted: method [b]: LC-MS at pH 2.7 with 0.1% formic acid in water and acetonitrile, linear gradient 10% to 95% acetonitrile.
For `CCCCCC(=O)Nc1nc(CON=C(c2ccccc2)c2ccnn2C)cs1` [Example 52], the logp was 3.8^[b].

For the molecule `Cc1nsnc1C(=NOCc1cccc(NC(=O)OC2CCCC2)n1)c1ccccc1` [Example 21], the logp is 5.11^[b].

For the molecule `Cc1nsnc1C(=NOCc1cccc(NCCCc2ccccc2)n1)c1ccccc1` [Example 36], the logp is 2.98^[b].

`CCCCC#Cc1nc(CON=C(c2ccc(F)cc2)c2nnsc2C)cs1` [Example 5]: the logp was 5.19^[b].

Take `CCCCC(CC)COC(=O)Nc1cccc(CON=C(c2ccccc2)c2nsnc2C)n1` (centres unmarked) [Example 27]: the logp was 6.76^[b].

With `CCCCC(=O)Nc1nc(CON=C(c2ccccc2)c2ccnn2C)cs1` [Example 55], the logp was 3.39^[b].

For the molecule `Cn1nccc1C(=NOCc1csc(N)n1)c1ccccc1` [Example 48], the logp is 1.5^[b].

Take `Cn1nccc1C(=NOCc1csc(NC(=O)OC(C)(C)C)n1)c1ccccc1` [Example 63]: the logp was 3.69^[b].

Consider `CCCCC#Cc1nc(CON=C(c2ccccc2)c2nonc2C)cs1` [Example 45], for which the logp is 5.51^[b].

As to `CCCCC#Cc1nc(CON=C(c2ccc(F)cc2)c2nonc2C)cs1` [Example 44], the logp is 5.99^[b].

As for `Cn1nccc1C(=NOCc1csc(NC(=O)C(C)(C)C)n1)c1ccccc1` [Example 54], the logp was 3.46^[b].

For the molecule `C=CCCOC(=O)Nc1cccc(CON=C(c2ccccc2)c2nsnc2C)n1` [Example 24], the logp is 4.65^[b].

For the molecule `CCCCCOC(=O)Nc1nc(CON=C(c2ccccc2)c2ccnn2C)cs1` [Example 60], the logp is 4.16^[b].

As for `CCCCC#Cc1nc(CON=C(c2ccccc2F)c2nonc2C)cs1` [Example 47], the logp was 5.39^[b].

Turning to `CCCCC#Cc1nc(CON=C(c2cccc(F)c2)c2nonc2C)cs1` [Example 46], the logp is 5.59^[b].

Take `CCCCCCC(=O)Nc1nc(CON=C(c2ccccc2)c2ccnn2C)cs1` [Example 56]: the logp is 4.18^[b].

For `Cc1nsnc1C(=NOCc1cccc(NC(=O)OCCCCC(F)(F)F)n1)c1ccccc1` [Example 28], the logp was 4.97^[b].

As for `CCCCCCNc1cccc(CON=C(c2cccc(F)c2)c2nonc2C)n1` [Example 42], the logp is 3.57^[b].

Turning to `C#CCCOC(=O)Nc1nc(CON=C(c2ccccc2)c2ccnn2C)cs1` [Example 61], the logp was 3.11^[b].

Turning to `Cn1nccc1C(=NOCc1csc(NC(=O)COc2ccccc2)n1)c1ccccc1` [Example 50], the logp is 3.55^[b].

`Cc1nsnc1C(=NOCc1cccc(NC(=O)OCc2ccccc2)n1)c1ccccc1` [Example 22]: the logp was 4.92^[b].

For `CCNc1cccc(CON=C(c2ccccc2)c2nsnc2C)n1` [Example 33], the logp was 1.89^[b].

On to `Cn1nccc1C(=NOCc1csc(NC(=O)CCc2ccccc2)n1)c1ccccc1` [Example 51], for which the logp is 3.69^[b].

For the molecule `Cn1nccc1C(=NOCc1csc(NC(=O)Cc2ccccc2)n1)c1ccccc1` [Example 53], the logp was 3.42^[b].

Consider `CCCCCCCOC(=O)Nc1cccc(CON=C(c2ccccc2)c2nsnc2C)n1` [Example 26], for which the logp is 6.42^[b].

For `CCCCOC(=O)Nc1nc(CON=C(c2ccccc2)c2ccnn2C)cs1` [Example 58], the logp is 3.76^[b].

As to `CCCCNc1cccc(CON=C(c2ccccc2)c2nsnc2C)n1` [Example 32], the logp was 2.41^[b].

Take `Cn1nccc1C(=NOCc1csc(C#CC2CC2)n1)c1ccccc1` [Example 62]: the logp was 3.87^[b].

As to `Cn1nccc1C(=NOCc1csc(NC(=O)OCCCCCl)n1)c1ccccc1` [Example 57], the logp was 3.65^[b].

On to `Cc1nsnc1C(=NOCc1cccc(NCCC2CCCCC2)n1)c1ccccc1` [Example 37], for which the logp is 3.46^[b].

Consider `CCCCCCOC(=O)Nc1nc(CON=C(c2ccccc2)c2ccnn2C)cs1` [Example 59], for which the logp is 4.59^[b].

For `Cn1nccc1C(=NOCc1csc(Br)n1)c1ccccc1` [Example 49], the logp is 3.39^[b].

Turning to `CCCCCCOC(=O)Nc1cccc(CON=C(c2ccccc2)c2nsnc2C)n1` [Example 23], the logp was 5.99^[b].

As to `CCCCCCNc1cccc(CON=C(c2ccccc2)c2nonc2C)n1` [Example 43], the logp was 3.31^[b].

On to `CCCCCNc1cccc(CON=C(c2ccccc2)c2nsnc2C)n1` [Example 38], for which the logp was 2.7^[b].

As to `CCOC(=O)Nc1nc(CON=C(c2ccccc2)c2ccnn2C)cs1` [Example 64], the logp was 3^[b].

As for `CCCCC#Cc1nc(CON=C(c2ccc(Cl)cc2)c2nnsc2C)cs1` [Example 4], the logp was 5.68^[b].

Take `C=CCCCCNc1cccc(CON=C(c2ccccc2)c2nsnc2C)n1` [Example 35]: the logp is 2.78^[b].

For the molecule `CCCNc1cccc(CON=C(c2ccccc2)c2nsnc2C)n1` [Example 34], the logp is 2.11^[b].

For `Cc1nsnc1C(=NOCc1cccc(N(C(=O)OC(C)(C)C)C(=O)OC(C)(C)C)n1)c1ccccc1` [Example 29], the logp was 5.47^[b].

The same series, now with this note: reversed phase HPLC column; HCOOH (formic acid) method; read-out: log P(HCOOH).
On to `CCCCCCN(C(=O)OC(C)(C)C)c1cccc(CON)n1`, for which the chromatographic logP amounted to 3.42.

For the molecule `CC#CCOC(=O)Nc1cccc(CON=C(c2ccccc2)c2nsnc2C)n1` [Example 25, But-2-yn-1-yl {6-[({[(4-methyl-1,2,5-thiadiazol-3-yl)(phenyl)methylidene]amino}oxy)-methyl]pyridin-2-yl}carbamate], the chromatographic logP was found to be 4.28.

In the case of `CCCCCCNc1cccc(CON=C(c2ccccc2)c2nsnc2C)n1` [Example 31, N-hexyl-6-[({[(4-methyl-1,2,5-thiadiazol-3-yl)(phenyl)methylidene]amino}oxy)methyl]-pyridin-2-amine], the chromatographic logP stood at 3.11.

Take `CCCCC#Cc1nc(CON)cs1` [4-[(aminooxy)methyl]-2-(hex-1-yn-1-yl)-1,3-thiazole]: the chromatographic logP came out at 1.76.

`Cc1nsnc1/C(=N\OCc1cccc(N)n1)c1ccccc1` [6-[({[(Z)-(4-methyl-1,2,5-thiadiazol-3-yl)(phenyl)methylene]amino}oxy)-methyl]pyridin-2-amine]: the chromatographic logP was found to be 1.54.

For the molecule `Cc1nsnc1/C(=N\OCc1cccc(N2C(=O)c3ccccc3C2=O)n1)c1ccccc1` [2-{6-[({[(Z)-(4-methyl-1,2,5-thiadiazol-3-yl)(phenyl)methylene]amino}-oxy)methyl]pyridin-2-yl}-1H-isoindole-1,3(2H)-dione], the chromatographic logP amounted to 3.99.

Consider `Nc1nc(CON2C(=O)c3ccccc3C2=O)cs1` [2-[(2-amino-1,3-thiazol-4-yl)methoxy]-1H-isoindole-1,3(2H)-dione], for which the chromatographic logP amounted to 0.74.

In the case of `Cc1nsnc1C(=NO)c1ccccc1` [N-hydroxy-1-(4-methyl-1,2,5-thiadiazol-3-yl)-1-phenylmethanimine], the chromatographic logP was determined as 2.26.

Turning to `CCCCCCNc1cccc(CON=C(c2cccc(F)c2)c2nnsc2C)n1` [Example 1, 6-[({[(3-fluorophenyl)(5-methyl-1,2,3-thiadiazol-4-yl)methylene]amino}oxy)methyl]-N-hexylpyridin-2-amine], the chromatographic logP is 3.06.

For the molecule `CCCCCCN(C(=O)OC(C)(C)C)c1cccc(CON2C(=O)c3ccccc3C2=O)n1`, the chromatographic logP was determined as 5.48.

As to `CCCCC#Cc1nc(CON2C(=O)c3ccccc3C2=O)cs1` [2-{[2-(hex-1-yn-1-yl)-1,3-thiazol-4-yl]methoxy}-1H-isoindole-1,3(2H)-dione], the chromatographic logP came out at 3.78.

With `CCCCC#Cc1nc(CON=C(c2cccc(Cl)c2)c2nnsc2C)cs1` [Example 6, 1-(3-chlorophenyl)-N-([2-(hex-1-yn-1-yl)-1,3-thiazol-4-yl]methoxy)-1-(5-methyl-1,2,3-thiadiazol-4-yl)methanimine], the chromatographic logP is 5.68.

As to `O=C1c2ccccc2C(=O)N1OCc1csc(Br)n1` [2-[(2-bromo-1,3-thiazol-4-yl)methoxy]-1H-isoindole-1,3(2H)-dione], the chromatographic logP turned out to be 2.39.

For `CCCCCCN(C(=O)OC(C)(C)C)c1cccc(CO)n1` [tert-butyl hexyl[6-(hydroxymethyl)pyridin-2-yl]carbamate], the chromatographic logP amounted to 3.94.

Staying with this series, now noted: reversed phase HPLC column; method [b]: LC-MS at pH 2.7 with 0.1% formic acid in water and acetonitrile, linear gradient 10% to 95% acetonitrile; read-out: logp.
For the molecule `CC#CCOC(=O)Nc1cccc(CON=C(c2ccccc2)c2nsnc2C)n1` [Example 25, But-2-yn-1-yl {6-[({[(4-methyl-1,2,5-thiadiazol-3-yl)(phenyl)methylidene]amino}oxy)-methyl]pyridin-2-yl}carbamate], the chromatographic logP is 4.28.

In the case of `CCCCCCNc1cccc(CON=C(c2ccccc2)c2nsnc2C)n1` [Example 31, N-hexyl-6-[({[(4-methyl-1,2,5-thiadiazol-3-yl)(phenyl)methylidene]amino}oxy)methyl]-pyridin-2-amine], the chromatographic logP was 3.11.

As for `CCCCCCNc1cccc(CON=C(c2cccc(F)c2)c2nnsc2C)n1` [Example 1, 6-[({[(3-fluorophenyl)(5-methyl-1,2,3-thiadiazol-4-yl)methylene]amino}oxy)methyl]-N-hexylpyridin-2-amine], the chromatographic logP is 3.06.

Turning to `CCCCC#Cc1nc(CON=C(c2cccc(Cl)c2)c2nnsc2C)cs1` [Example 6, 1-(3-chlorophenyl)-N-([2-(hex-1-yn-1-yl)-1,3-thiazol-4-yl]methoxy)-1-(5-methyl-1,2,3-thiadiazol-4-yl)methanimine], the chromatographic logP came out at 5.68.
